In brackets after ≈: the same amount, converted by molar mass. Activity calls are given as the source filed them. The calls are words filed in the database; no cut-off is given here.

The results in this text go back to ChEMBL document CHEMBL4665748, “Heimiomycins A-C and Calamenens from the African Basidiomycete Heimiomyces sp” (J Nat Prod, 2020).

One assay concerns Staphylococcus aureus. As to the kind of experiment: Antimicrobial activity against Staphylococcus aureus DSM346 by serial dilution method. In kind it is functional.
The subject of assay [1] is Mycolicibacterium smegmatis. The assay can be described thus: Antimicrobial activity against Mycobacterium smegmatis DSM44200 by serial dilution method. The class given is functional.
The next assay relates to Bacillus subtilis. As to the kind of experiment: Antimicrobial activity against Bacillus subtilis DSM10 by serial dilution method. The class given is functional.
The next assay relates to Micrococcus luteus. As to the kind of experiment: Antimicrobial activity against Micrococcus luteus DSM1790 by serial dilution method. In kind it is functional.
The subject of another assay is Mucor hiemalis. As to the kind of experiment: Antimicrobial activity against Mucor hiemalis DSM2656 by serial dilution method. In kind it is functional.
The next assay relates to KB 3-1. The assay can be described thus: Cytotoxicity against human KB3.1 cells assessed as reduction in cell viability by MTT assay. The class given is functional, cell-based.
For a further assay, the system named is L929. As to the kind of experiment: Cytotoxicity against mouse L929 cells assessed as reduction in cell viability by MTT assay. The class given is functional, cell-based. For orientation: Tetrazolium assays rely on reduction of a dye to a coloured formazan, in cell work by metabolically active cells.
In another assay the test system is Wickerhamomyces anomalus. The assay can be described thus: Antimicrobial activity against Pichia anomala DSM6766 by serial dilution method. In kind it is functional.
In a further assay the test system is Candida albicans. As to the kind of experiment: Antimicrobial activity against Candida albicans DSM1665 by serial dilution method. In kind it is functional.
[2] abbreviates: Mus musculus, L929, read-out: IC50.

In turn, GENTAMICIN returned a minimum inhibitory concentration (MIC) with Staphylococcus aureus of 9.2 mg/L.
As to `NC[C@H]1O[C@H](O[C@H]2[C@H](O)[C@@H](O[C@H]3O[C@H](CO)[C@@H](O)[C@H](N)[C@H]3O)[C@H](N)C[C@@H]2N)[C@H](O)[C@@H](O)[C@@H]1O` [KANAMYCIN], the MIC in assay [1] was 0.6 mg/L (≈ 1.24 µM).
Regarding `CN(C)[C@@H]1C(O)=C(C(N)=O)C(=O)[C@@]2(O)C(O)=C3C(=O)c4c(O)cccc4[C@@](C)(O)[C@H]3[C@H](O)[C@@H]12` [OXYTETRACYCLINE], the results for the minimal inhibitory concentration (MIC) in the assay on Bacillus subtilis and with Micrococcus luteus were 9.2 mg/L (≈ 20 µM) and 0.3 mg/L (≈ 0.652 µM), respectively.
Regarding `CC1=CC(=O)C(c2c(C=O)c(O)c(O)c3c2[C@@H](C(C)C)CC[C@@H]3C)=C(O)C1=O`, the MIC against Mucor hiemalis was found to be 25 mg/L (≈ 65 µM); with Staphylococcus aureus it was 50 mg/L (≈ 130 µM); against Bacillus subtilis, 12.5 mg/L (≈ 32.5 µM); against Wickerhamomyces anomalus (Hansenula anomala), 100 mg/L (≈ 260 µM); in the assay with Candida albicans, 100 mg/L (≈ 260 µM); in assay [1] it was 100 mg/L (≈ 260 µM). In the assay with Micrococcus luteus, inhibition of growth (MIC) required 3.1 mg/L (≈ 8.06 µM). The IC50 result in the assay on KB 3-1 was “Not Active”; in the assay with L929 (setting [2]) it was 5.5 µM.
Turning to `C/C(=C\c1csc(C)n1)[C@@H]1C[C@@H]2O[C@]2(C)CCC[C@H](C)[C@H](O)[C@@H](C)C(=O)C(C)(C)[C@@H](O)CC(=O)O1` [PATUPILONE], the IC50 in the assay with L929 (setting [2]) came to 0.0026 µM.
Turning to NYSTATIN, the minimal inhibitory concentration (MIC) against Mucor hiemalis is 9.2 mg/L; against Wickerhamomyces anomalus, 4.6 mg/L; against Candida albicans, 9.2 mg/L.
In the case of `COc1c(O)c2c(c3cnc4c(c13)C(=O)C=C(C)C4=O)[C@@H](C(C)C)CC[C@@H]2C`, the MIC amounted to 50 mg/L (≈ 132 µM) in the assay with Mucor hiemalis; 50 mg/L (≈ 132 µM) against Staphylococcus aureus; 6.3 mg/L (≈ 16.6 µM) in the assay with Bacillus subtilis; 100 mg/L (≈ 264 µM) against Wickerhamomyces anomalus (Hansenula anomala); 100 mg/L (≈ 264 µM) in the assay on Candida albicans; 6.3 mg/L (≈ 16.6 µM) against Micrococcus luteus. Further, the IC50 result in the assay with KB 3-1 and in the assay on L929 (l929) was “Not Active” in each case. Moreover, the MIC entry in assay [1] was “inactive”.

The term MIC denotes the least concentration at which growth counts as inhibited. What is called IC50 is the point on the concentration scale where inhibition reaches its midpoint.
